In publication PMC9780888, “4-Isobutylmethcathinone—A Novel Synthetic Cathinone with High In Vitro Cytotoxicity and Strong Receptor Binding Preference of Enantiomers” (Pharmaceuticals, 2022):
Structures can show the parent of a compound that is named as a salt.

Target: T1, dopamine receptor DAR2 (Homo sapiens, UniProt P14416)
T1 construct: host or cells: HTLA (HEK 293-derived)
Assay: PRESTO-Tango β-arrestin 2 recruitment assay, DAR2
Format: cell-based
Details: for RLU value relative to control (transfected but untreated HTLA cells): DAR2, 500 nM
Text: However, binding to a specific receptor/transporter and, thus, the mechanism of action of a given cathinone always depends on the specific structure of the evaluated compound [37]. In this study, the binding activity of IBMcat and its enantiomers was verified by PRESTO-Tango (parallel receptor expression and screening via transcriptional output, with transcriptional activation following arrestin-2 translocation) assay using the HTLA cell line stably producing β-arrestin-2 in a fusion with TEV and luciferase production driven by tTA. For this purpose, the HTLA cells were transiently transfected with plasmid DNA encoding the dopamine receptors type 1-4 (DAR1-4), which also contain the TEV protease cleavage site followed by tTA at the 3’-end (DAR1-Tango, DAR2-Tango, DAR3-Tango, DAR4-Tango). In the case of the receptor activation by a ligand, in transfected cells, the receptor is desensitized by β-arrestin fused to TEV protease. This brings the TEV protease close to the site that specifically cleaves and, thus, the transcription factor can be cleaved. The transcription factor then translocates to the cell nucleus, in which it triggers the transcription of the target gene for luciferase production which can be determined by the light emitted from luciferin conversion to oxyluciferin. Here, the pronounced luminescence was recorded for all DAR1-4 types in HTLA cells treated with IBMCat and its enantiomers (Figure 8).
The HTLA cell line was used for the PRESTO-Tango β-arrestin recruitment assay. […]
The transfected HTLA cells were incubated for 24 h, and then 1 × 10^4 cells were seeded per well of a white 96-well clear bottom plate (Brand, Germany) in 40 μL of DMEM with 1% charcoal-stripped FBS (Thermo Fisher Scientific, USA). […] After 5 min., the luminescence was measured using a multi-mode microplate reader SpectraMax iD5 (Molecular Devices, San Jose, CA, USA) measuring the entire wavelength spectrum. All samples were measured in quadruplicates. The data were evaluated by Prism 7 software (GraphPad, San Jose, CA, USA).

T1 sequence (P14416 whole entry): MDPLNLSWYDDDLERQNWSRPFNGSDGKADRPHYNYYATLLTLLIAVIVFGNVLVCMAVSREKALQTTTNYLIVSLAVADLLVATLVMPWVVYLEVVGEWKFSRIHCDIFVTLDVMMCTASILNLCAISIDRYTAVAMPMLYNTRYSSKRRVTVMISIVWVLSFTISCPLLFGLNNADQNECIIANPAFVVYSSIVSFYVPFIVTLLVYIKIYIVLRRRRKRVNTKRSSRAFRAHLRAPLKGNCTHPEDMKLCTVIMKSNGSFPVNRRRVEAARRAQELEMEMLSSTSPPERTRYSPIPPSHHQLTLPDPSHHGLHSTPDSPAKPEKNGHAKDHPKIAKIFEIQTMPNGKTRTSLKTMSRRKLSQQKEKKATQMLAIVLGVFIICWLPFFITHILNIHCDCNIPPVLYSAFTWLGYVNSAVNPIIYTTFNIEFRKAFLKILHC

Compound | RLU value relative to control (transfected but untreated HTLA cells) | effect on DAR2-expressing cells (0-500 nM)
CNC(C)C(=O)c1ccc(CC(C)C)cc1.Cl (stereo not drawn) [IBMcat, 4-isobutylmethcathinone hydrochloride] | approximately 5 fold | –
CN[C@@H](C)C(=O)c1ccc(CC(C)C)cc1 [S-IBMCat, (S)-4-isobutylmethcathinone hydrochloride] | ~3 fold | –
CN[C@H](C)C(=O)c1ccc(CC(C)C)cc1 [R-IBMCat] | – | no effect
